ChEMBL document CHEMBL4376816, “Discovery of the Oral Leukotriene C4 Synthase Inhibitor (1S,2S)-2-({5-[(5-Chloro-2,4-difluorophenyl)(2-fluoro-2-methylpropyl)amino]-3-methoxypyrazin-2-yl}carbonyl)cyclopropanecarboxylic Acid (AZD9898) as a New Treatment for Asthma” (J Med Chem, 2019)
Converted amounts (≈) assume the structure as drawn. The source made the active and inactive calls. The calls are words filed in the database; no cut-off is given here.

Key:
Cytochrome P450 2C19 = Cytochrome P450 2C19 (Homo sapiens, UniProt P33261); test: Inhibition of recombinant human CYP2C19 using coumarin based substrate by fluorescence assay; type: ADME
Sequence of Cytochrome P450 2C19 (P33261 whole entry): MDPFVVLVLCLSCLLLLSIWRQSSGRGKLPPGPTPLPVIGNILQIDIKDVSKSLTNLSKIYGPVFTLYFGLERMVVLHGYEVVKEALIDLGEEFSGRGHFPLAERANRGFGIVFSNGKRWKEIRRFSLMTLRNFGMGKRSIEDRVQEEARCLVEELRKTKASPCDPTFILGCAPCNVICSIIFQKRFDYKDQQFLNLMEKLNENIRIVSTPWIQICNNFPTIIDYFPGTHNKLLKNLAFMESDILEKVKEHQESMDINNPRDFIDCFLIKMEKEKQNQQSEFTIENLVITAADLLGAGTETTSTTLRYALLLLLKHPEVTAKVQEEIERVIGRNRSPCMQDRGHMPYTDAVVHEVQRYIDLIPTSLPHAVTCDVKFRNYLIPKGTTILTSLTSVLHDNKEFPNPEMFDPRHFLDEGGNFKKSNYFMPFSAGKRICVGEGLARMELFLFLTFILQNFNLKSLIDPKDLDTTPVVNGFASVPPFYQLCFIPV

Cytochrome P450 2C9 = Cytochrome P450 2C9 (Homo sapiens, UniProt P11712); test: Inhibition of recombinant human CYP2C9 expressed in Escherichia coli using coumarin based substrate by fluorescence assay; type: ADME
Sequence of Cytochrome P450 2C9 (P11712 whole entry): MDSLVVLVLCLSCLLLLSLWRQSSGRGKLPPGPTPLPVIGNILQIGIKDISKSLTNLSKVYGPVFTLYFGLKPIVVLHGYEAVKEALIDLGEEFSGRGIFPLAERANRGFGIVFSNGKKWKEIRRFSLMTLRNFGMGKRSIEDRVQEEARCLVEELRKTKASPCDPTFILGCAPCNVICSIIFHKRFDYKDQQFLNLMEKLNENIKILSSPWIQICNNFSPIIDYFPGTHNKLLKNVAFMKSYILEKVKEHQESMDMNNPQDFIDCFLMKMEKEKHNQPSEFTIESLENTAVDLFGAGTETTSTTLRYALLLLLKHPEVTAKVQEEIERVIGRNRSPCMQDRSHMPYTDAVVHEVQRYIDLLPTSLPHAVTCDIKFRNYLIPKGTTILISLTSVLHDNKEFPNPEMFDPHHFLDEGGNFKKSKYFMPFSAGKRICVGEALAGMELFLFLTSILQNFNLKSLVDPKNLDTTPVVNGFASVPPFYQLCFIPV

[1] = Toxicity in rat assessed as bilirubinemia at 300 mg/kg, po after 7 days; type: organism-based; conditions: in vivo
Cytochrome P450 3A4 = Cytochrome P450 3A4 (Homo sapiens, UniProt P08684); test: Inhibition of recombinant human CYP3A4 expressed in Escherichia coli using coumarin based substrate by fluorescence assay; type: ADME
Sequence of Cytochrome P450 3A4 (P08684 whole entry): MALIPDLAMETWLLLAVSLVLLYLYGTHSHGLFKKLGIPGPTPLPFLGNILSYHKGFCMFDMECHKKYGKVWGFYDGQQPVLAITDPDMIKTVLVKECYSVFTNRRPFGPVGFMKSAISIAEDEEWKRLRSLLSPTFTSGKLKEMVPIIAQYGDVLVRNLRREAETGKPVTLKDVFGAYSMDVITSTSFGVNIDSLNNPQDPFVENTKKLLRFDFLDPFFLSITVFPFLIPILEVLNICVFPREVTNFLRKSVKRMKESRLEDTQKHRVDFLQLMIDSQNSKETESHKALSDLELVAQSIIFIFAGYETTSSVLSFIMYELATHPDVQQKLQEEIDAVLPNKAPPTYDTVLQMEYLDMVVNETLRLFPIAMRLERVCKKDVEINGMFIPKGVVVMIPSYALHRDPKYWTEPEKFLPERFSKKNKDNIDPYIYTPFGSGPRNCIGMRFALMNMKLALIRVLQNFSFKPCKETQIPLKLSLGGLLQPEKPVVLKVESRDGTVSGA

[2] = target: T1, Solute carrier organic anion transporter family member 1B1 (Homo sapiens, UniProt Q9Y6L6); test: Inhibition of OATP1B1 (unknown origin) expressed in HEK293 cells measured after 0.5 to 20 mins by scintillation counting analysis; type: ADME, cell-based
T1 sequence (Q9Y6L6 whole entry): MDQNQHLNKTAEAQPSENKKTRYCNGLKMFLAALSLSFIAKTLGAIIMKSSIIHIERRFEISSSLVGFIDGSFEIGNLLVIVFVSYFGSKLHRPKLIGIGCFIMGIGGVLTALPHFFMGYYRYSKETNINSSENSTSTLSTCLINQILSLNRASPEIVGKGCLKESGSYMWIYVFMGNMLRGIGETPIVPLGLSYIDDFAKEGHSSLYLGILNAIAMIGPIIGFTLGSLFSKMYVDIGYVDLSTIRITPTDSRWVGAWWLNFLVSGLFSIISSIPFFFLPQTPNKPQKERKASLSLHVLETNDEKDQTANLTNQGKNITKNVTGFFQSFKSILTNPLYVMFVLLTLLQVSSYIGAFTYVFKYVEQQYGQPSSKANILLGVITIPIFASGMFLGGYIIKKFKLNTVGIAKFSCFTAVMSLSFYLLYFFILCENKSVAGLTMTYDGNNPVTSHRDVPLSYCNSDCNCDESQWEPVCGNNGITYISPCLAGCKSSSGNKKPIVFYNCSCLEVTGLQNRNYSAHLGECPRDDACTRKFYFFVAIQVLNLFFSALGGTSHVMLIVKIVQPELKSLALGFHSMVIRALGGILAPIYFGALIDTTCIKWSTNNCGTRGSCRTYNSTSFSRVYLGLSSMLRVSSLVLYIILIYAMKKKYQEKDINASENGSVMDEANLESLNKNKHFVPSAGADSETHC

[3] = Effective half life in Han Wistar rat at 0.5 mg/kg, iv or 1 mg/kg, po after 24 hrs; type: ADME, organism-based; conditions: in vivo, read-out: t1/2eff (converted)
[4] = Toxicity in rat assessed as unilateral sperm granuloma at 300 mg/kg, po after 7 days; type: organism-based; conditions: in vivo
[5] = Fraction unbound in human plasma by equilibrium dialysis based LC-MS analysis; type: ADME, cell-free
[6] = Volume of distribution at steady state in Beagle dog at 1 mg/kg, iv infusion or 2 mg/kg, po via gavage after 48 hrs; type: ADME, organism-based, Canis lupus familiaris; conditions: in vivo, read-out: Vdss
[7] = Cmax in po dosed rat at NOAEL measured after 7 days; type: ADME, organism-based; parameters: route oral; conditions: in vivo
[8] = Toxicity in rat assessed as sperm granuloma at 300 mg/kg, po after 7 days; type: organism-based; conditions: in vivo
[9] = Apparent permeability across apical to basolateral side in human Caco2 cells; conditions: Caco-2
[10] = Intrinsic clearance in human hepatocytes at 1 uM assessed as per million cells after 2 to 60 mins by LC-MS/MS analysis; type: ADME, cell-based, Hepatocyte; conditions: read-out: CLH
[11] = Fraction unbound in Beagle dog plasma by equilibrium dialysis based LC-MS analysis; type: ADME, cell-free, Canis lupus familiaris
[12] = Fraction unbound in Sprague-Dawley rat plasma by equilibrium dialysis based LC-MS analysis; type: ADME, cell-free
[13] = AUC in po dosed rat at NOAEL measured after 7 days; type: ADME, organism-based; conditions: in vivo
[14] = AUC in po dosed rat at LOAEL measured after 7 days; type: ADME, organism-based; conditions: in vivo
[15] = Toxicity in rat assessed as liver hypertrophy at 300 mg/kg, po after 7 days; type: organism-based; conditions: in vivo
[16] = Clearance in Beagle dog at 1 mg/kg, iv infusion or 2 mg/kg, po via gavage after 48 hrs; type: ADME, organism-based, Canis lupus familiaris; conditions: in vivo
Cytochrome P450 1A2 = target: T2, Cytochrome P450 1A2 (Homo sapiens, UniProt P05177); test: Inhibition of recombinant human CYP1A2 using coumarin based substrate by fluorescence assay; type: ADME
T2 sequence (P05177 whole entry): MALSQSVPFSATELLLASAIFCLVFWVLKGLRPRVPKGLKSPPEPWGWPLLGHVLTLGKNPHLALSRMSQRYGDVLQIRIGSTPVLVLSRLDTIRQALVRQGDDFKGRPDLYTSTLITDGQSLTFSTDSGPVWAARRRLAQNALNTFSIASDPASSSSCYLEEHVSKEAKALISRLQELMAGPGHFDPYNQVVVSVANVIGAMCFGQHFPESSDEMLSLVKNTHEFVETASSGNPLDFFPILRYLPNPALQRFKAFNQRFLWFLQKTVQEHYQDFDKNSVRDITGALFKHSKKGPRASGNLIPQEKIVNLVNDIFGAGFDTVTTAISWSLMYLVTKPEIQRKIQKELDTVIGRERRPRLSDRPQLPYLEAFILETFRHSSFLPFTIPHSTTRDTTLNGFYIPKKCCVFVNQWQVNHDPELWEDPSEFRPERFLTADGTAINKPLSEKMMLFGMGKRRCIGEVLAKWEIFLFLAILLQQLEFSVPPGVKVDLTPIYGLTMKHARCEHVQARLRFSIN

[17] = Volume of distribution at steady state in Han Wistar rat at 0.5 mg/kg, iv or 1 mg/kg, po after 24 hrs; type: ADME, organism-based; conditions: in vivo, read-out: Vdss
[18] = Cmax in po dosed rat at LOAEL measured after 7 days; type: ADME, organism-based; parameters: route oral; conditions: in vivo
[19] = target: Voltage-gated inwardly rectifying potassium channel KCNH2 (Homo sapiens, UniProt Q12809); test: Inhibition of human ERG by electrophysiology based assay
Sequence of Voltage-gated inwardly rectifying potassium channel KCNH2 (Q12809 whole entry): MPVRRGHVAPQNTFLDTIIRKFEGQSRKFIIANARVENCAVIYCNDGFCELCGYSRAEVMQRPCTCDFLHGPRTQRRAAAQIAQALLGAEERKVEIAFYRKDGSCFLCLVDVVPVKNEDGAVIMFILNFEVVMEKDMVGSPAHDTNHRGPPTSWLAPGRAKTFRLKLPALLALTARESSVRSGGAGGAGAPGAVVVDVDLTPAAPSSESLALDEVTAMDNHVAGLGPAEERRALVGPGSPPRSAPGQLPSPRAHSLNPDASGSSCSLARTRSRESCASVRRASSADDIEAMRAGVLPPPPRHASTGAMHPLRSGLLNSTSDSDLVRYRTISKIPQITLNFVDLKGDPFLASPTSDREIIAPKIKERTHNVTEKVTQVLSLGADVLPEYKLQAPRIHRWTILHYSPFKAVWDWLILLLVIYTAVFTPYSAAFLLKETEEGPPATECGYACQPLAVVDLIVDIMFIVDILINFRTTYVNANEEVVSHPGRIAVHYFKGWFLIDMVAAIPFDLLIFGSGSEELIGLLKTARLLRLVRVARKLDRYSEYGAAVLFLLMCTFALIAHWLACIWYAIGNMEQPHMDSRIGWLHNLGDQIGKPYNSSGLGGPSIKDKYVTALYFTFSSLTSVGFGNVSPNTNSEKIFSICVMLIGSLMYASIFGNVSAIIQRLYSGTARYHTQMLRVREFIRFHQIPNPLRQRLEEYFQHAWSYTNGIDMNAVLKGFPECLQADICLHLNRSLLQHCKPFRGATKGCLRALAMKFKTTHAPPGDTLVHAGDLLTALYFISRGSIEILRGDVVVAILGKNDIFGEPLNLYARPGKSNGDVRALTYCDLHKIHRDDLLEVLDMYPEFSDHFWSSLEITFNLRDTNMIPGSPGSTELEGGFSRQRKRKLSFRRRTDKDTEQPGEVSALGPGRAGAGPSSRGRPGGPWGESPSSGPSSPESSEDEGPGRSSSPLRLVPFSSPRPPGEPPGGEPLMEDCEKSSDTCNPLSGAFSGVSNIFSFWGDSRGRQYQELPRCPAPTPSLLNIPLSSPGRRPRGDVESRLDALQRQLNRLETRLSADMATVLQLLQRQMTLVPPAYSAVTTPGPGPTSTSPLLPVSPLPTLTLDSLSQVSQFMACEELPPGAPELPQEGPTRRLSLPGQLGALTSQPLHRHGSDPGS

[20] = Clearance in Han Wistar rat at 0.5 mg/kg, iv or 1 mg/kg, po after 24 hrs; type: ADME, organism-based; conditions: in vivo
[21] = Effective half life in Beagle dog at 1 mg/kg, iv infusion or 2 mg/kg, po via gavage after 48 hrs; type: ADME, organism-based, Canis lupus familiaris; conditions: in vivo, read-out: t1/2eff (converted)
[22] = Displacement of [3H]-GABA/[3]-muscimol from GABA gated chloride channel in Sprague-Dawley rat cortical synoptic membranes by liquid scintillation analysis
[23] = Oral bioavailability in Han Wistar rat at 1 mg/kg after 24 hrs; type: ADME, organism-based; conditions: in vivo
[24] = Octanol/Sodium phosphate buffer partition coefficient, log D of compound at pH 7.4 at 1 mg incubated for overnight under shaking condition by LC-MS/MS analysis; type: physicochemical
Cytochrome P450 2D6 = Cytochrome P450 2D6 (Homo sapiens, UniProt P10635); test: Inhibition of recombinant human CYP2D6 using coumarin based substrate by fluorescence assay; type: ADME
Sequence of Cytochrome P450 2D6 (P10635 whole entry): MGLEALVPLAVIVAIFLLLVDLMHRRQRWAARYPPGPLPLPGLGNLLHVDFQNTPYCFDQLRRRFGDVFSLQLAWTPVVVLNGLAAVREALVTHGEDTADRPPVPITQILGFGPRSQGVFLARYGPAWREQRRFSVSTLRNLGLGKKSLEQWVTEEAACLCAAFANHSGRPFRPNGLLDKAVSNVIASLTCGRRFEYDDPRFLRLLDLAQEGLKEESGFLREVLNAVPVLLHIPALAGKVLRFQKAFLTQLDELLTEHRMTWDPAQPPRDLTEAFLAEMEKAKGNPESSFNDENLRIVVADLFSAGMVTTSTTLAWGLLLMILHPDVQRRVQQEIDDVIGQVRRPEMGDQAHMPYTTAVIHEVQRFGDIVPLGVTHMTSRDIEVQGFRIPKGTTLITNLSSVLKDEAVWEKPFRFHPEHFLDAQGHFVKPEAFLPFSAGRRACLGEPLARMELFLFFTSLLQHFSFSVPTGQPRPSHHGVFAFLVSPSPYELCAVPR

Rattus norvegicus = test: In vivo inhibition of LTC4S in po dosed Sprague-Dawley rat assessed as unbound drug concentration required for inhibition of calcium ionophore A23187-induced cysteinyl leukotrienes production in BAL fluid by LC-MS/MS analysis; type: functional
[25] = Oral bioavailability in Beagle dog at 2 mg/kg via gavage after 48 hrs; type: ADME, organism-based, Canis lupus familiaris; conditions: in vivo
[26] = Thermodynamic solubility of compound in pH 7.4 PBS at 1 mg/ml incubated for 24 hrs under shaking condition by LC-MS/MS analysis; type: physicochemical; conditions: read-out: Therm_solubility
[27] = target: T3, Leukotriene C4 synthase (Homo sapiens) (UniProt Q16873); test: Inhibition of LTC4S in healthy human whole blood assessed as inhibition of calcium ionophore A23187 stimulated cysteinyl leukotrienes production preincuabted for 30 mins followed by calcium ionophore stimulation and measured after 10 mins by LC-MS analysis; type: tissue-based
T3 sequence (whole entry): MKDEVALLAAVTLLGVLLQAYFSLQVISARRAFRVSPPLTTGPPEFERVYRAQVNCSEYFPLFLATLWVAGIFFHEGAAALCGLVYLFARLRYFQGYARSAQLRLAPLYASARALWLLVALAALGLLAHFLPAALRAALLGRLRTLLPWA

[28] = target: T3, Leukotriene C4 synthase (Homo sapiens); test: Inhibition of LTC4S in asthmatic human whole blood assessed as inhibition of calcium ionophore A23187 stimulated cysteinyl leukotrienes production preincuabted for 30 mins followed by calcium ionophore stimulation and measured after 10 mins by LC-MS analysis; type: tissue-based
Leukotriene C4 synthase = target: T4, Leukotriene C4 synthase (Homo sapiens, UniProt Q16873)
T4 sequence (Q16873 whole entry): T3 sequence (whole entry)

## COc1cc(N(CC2CC2)c2ccc(Cl)c3ccccc23)cnc1C(=O)[C@H]1C[C@@H]1C(=O)O
Cytochrome P450 2C19
  IC50: > 20 µM
Cytochrome P450 2C9
  IC50: > 20 µM
[1]
  Activity: Toxic
Cytochrome P450 3A4
  IC50: > 20 µM
[2]
  INH: 0.6 µM
[3]
  half-life: 2.7 h
[4]
  Activity: Toxic
[5]
  fraction unbound: 0.0066
[6]
  Vd: 1.1 L/kg
[7]
  Cmax at […]: 47 µM
[8]
  Activity: Toxic
[9]
  Papp A→B: 105 ×10⁻⁶ cm/s
[10]
  hepatocyte CLint at 1 µM: 5 µL/min/1e6 cells
[11]
  fraction unbound: 0.0021
[12]
  fraction unbound: 0.0062
[13]
  AUC: 200 µM·h
[14]
  AUC: 1830 µM·h
[15]
  Activity: Toxic
[16]
  clearance: 2.4 mL/min/kg
Cytochrome P450 1A2
  IC50: > 20 µM
[17]
  Vd: 2.8 L/kg
[18]
  Cmax at […]: 144 µM
[19]
  inhibition (INH): Not Active
[20]
  clearance: 12 mL/min/kg
[21]
  half-life: 4.8 h
[22]
  IC50: 0.074 µM
[23]
  bioavailability: 46%
[24]
  logD: 2.4
Cytochrome P450 2D6
  IC50: > 20 µM
Rattus norvegicus
  fEC50: 7.5 nM
[25]
  bioavailability: 91%
[26]
  solubility thermodynamic at 24 h: 576 µM (≈ 260 µg/mL)

## CC(C)(O)c1ccccc1CC[C@@H](SCC1(CC(=O)O)CC1)c1cccc(/C=C/c2ccc3ccc(Cl)cc3n2)c1 [MONTELUKAST]
[27]
  inhibition: Active
[28]
  inhibition: Active
Leukotriene C4 synthase
  IC50: < 5 µM
